The record followed here is patent publication US12679839B2, “Cyclin-dependent kinase 7 (CDK7) non-covalent inhibitors” (JANSSEN PHARMACEUTICA NV, priority 2020, dated 2026).

SMILES strings stand for the structures.

Experiment [1] concerns RNA polymerase II Serine 5 phosphorylation (Rpb1 CTD), downstream substrate of CDK7. Nature of the experiment: Imaging-based cellular RNA PolII Ser5 phosphorylation assay in A549 cells. In kind it is cell-based, human. The conditions noted are these: Homo sapiens, A549, 3 h, challenged with compound for 3 hours, read-out: pRNA polII Ser5 (A549) pIC50 (converted). In outline:
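A549 cells seeded 20 h in DMEM with 1% FBS, then exposed to compound for 3 h at 37 °C; fixed, methanol-permeabilized and immunostained for phospho-Rpb1 CTD Ser5, read by automated imaging. Signal normalized to DMSO (high) and 10 μM LDC4297 (low) controls; IC50 from four-parameter fit of % control vs concentration.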

Experiment [2] addresses T1, CDK7/Cyclin H/MAT-1 complex (Homo sapiens, UniProt P50613).
T1 construct: Human CDK7 (amino acids 1-346); His6 (N); TEV protease cleavage site (N); made in house; host or cells: baculovirus-SF9 insect cells
Nature of the experiment: Flint assay, end-point fluorescence (5 nM CDK7/Cyclin H/MAT-1 complex). The format is biochemical. As to conditions: for IC50: read-out: CDK7 (5 nM) pIC50 (converted). The protocol: Human CDK7 (amino acids 1-346) containing an N-terminal His6-tag followed by a tobacco etch virus (TEV) protease cleavage site, human MAT1 (amino acids 1-309) and human cyclin H (amino acids 1-323) were co-expressed in the baculovirus-SF9 insect cell expression system to generate a trimeric complex. Cell pellets were collected 72 h post-infection and were resuspended by Dounce homogenization in 20 mM Hepes-NaOH (pH 8.0), 300 mM NaCl, 10% glycerol, 2 mM dithiothreitol DTT), and 20 mM Imidazole supplemented with cOmplete™ Protease Inhibitor Cocktail (Roche) and 25 U/mL Benzonase® Nuclease HC according to the manufacturer's instructions. Cells were lysed by passing through a Microfluidics M110Y Microfluidizer 3 times at 600 kPa followed by centrifugation at 38,000×g at 4° C. for 1 hour. The supernatant was loaded onto a pre-equilibrated HisTrap HP column and eluted in 20 mM Hepes-NaOH (pH 8.0), 50 mM NaCl, 10% glycerol, 2 mM DTT, and 400 mM Imidazole. The eluate was further purified by gel filtration on a Superdex S200 16/60 column and eluted with 20 mM Hepes-NaOH (pH 7.5), 50 mM NaCl, 10% Glycerol, 2 mM DTT. Fractions containing a trimeric complex of CDK7, cyclin H, and MAT1 in a 1:1:1 ratio were pooled and concentrated to 3 mg/mL in a 10 kDa MWCO concentrator, and diluted to a final concentration of 1.6 mg/mL in 11.1 mM Hepes-NaOH (pH 8.0), 27.8 mM NaCl, 1.1 mM DTT and 50% glycerol.
Compounds with potencies approaching the limit of detection of the assay (IC50≤10 nM) were further assessed in a more sensitive fluorescence end-point assay.
[formula] where νo is the rate in the absence of inhibitor, νmin is the rate at highest inhibitor concentration, and h is the Hill coefficient. Flint Assay (5 nM CDK7/Cyclin H/MAT-1 Complex)
The continuous absorbance assay was converted to an end-point fluorescence assay following the NADH fluorescence signal decrease at the excitation and emission wavelengths of 340 nm and 440 nm, respectively.
Under the same concentrations of substrates and coupling reagents used in the absorbance assay, the fluorescence assay was performed at a reduced concentration of the CDK7/Cyclin H/MAT-1 complex of 5 nM (final concentration) with a reaction time of 24 hours. The percent of inhibition was calculated by the following equation. Percent of inhibition=(Sample−NC)/(PC−NC)*100 where NC is the mean if negative control (reaction without inhibitor), and PC is the mean of positive control (reaction with complete inhibition).
Dosing curves were fitted using the following equation to obtain IC50: Y=Bottom+(Top−Bottom)/(1+10^((log IC50−X)*Hill slope)) where X=log10 of the compound concentration; top and bottom can be defined by PC and NC respectively. Imaging-Based Cellular RNA PolII Ser5 Phosphorylation Assay

T1 sequence (P50613 whole entry, the tested form may be a part): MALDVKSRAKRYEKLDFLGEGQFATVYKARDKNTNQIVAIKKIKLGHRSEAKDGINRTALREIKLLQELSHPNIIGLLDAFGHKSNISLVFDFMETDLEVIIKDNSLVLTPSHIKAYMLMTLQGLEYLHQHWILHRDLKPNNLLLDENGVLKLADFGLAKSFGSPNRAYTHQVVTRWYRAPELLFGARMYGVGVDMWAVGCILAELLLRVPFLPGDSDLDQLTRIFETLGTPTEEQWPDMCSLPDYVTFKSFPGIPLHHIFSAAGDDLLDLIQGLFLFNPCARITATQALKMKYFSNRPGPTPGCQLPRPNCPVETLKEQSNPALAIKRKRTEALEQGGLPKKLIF
T1 sequence (P51946 whole entry partner, the tested form may be a part): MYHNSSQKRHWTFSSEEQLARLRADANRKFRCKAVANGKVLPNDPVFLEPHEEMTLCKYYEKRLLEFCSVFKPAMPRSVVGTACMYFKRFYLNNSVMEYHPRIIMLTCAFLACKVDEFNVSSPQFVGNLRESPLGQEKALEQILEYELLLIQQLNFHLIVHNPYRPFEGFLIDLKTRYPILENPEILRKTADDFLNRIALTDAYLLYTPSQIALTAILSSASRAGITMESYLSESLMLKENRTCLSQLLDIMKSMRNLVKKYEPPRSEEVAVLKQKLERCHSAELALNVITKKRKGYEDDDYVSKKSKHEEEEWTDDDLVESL
T1 sequence (P51948 whole entry partner, the tested form may be a part): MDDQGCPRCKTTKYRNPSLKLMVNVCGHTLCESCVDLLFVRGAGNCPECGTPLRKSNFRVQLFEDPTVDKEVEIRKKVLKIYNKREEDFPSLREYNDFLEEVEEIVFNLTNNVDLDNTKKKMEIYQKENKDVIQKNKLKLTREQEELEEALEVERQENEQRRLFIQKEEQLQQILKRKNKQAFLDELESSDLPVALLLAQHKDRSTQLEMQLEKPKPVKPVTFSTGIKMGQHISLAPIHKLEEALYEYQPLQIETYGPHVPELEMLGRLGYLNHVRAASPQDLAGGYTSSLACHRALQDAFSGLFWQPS

Turning to `C[C@@H]1Cc2cnc(NC3CCOCC3)nc2CN1C(=O)[C@@H]1CC[C@@H](N(C)C)CN1c1ccccc1` (mixture of isomers) [Compound 167], the IC50 in experiment [1] is 5750 nM. For the same compound, the “CDK7 (5 nM) pIC50” value in experiment [2] is listed as 6.95.

Take `C[C@@H]1Cc2cnc(N[C@H]3CCC(=O)N(C)C3)nc2CN1C(=O)[C@H]1CCN(C)C[C@@H]1c1ccccc1` (relative stereo) [Compound 7]: the IC50 in experiment [1] is 933 nM; in experiment [2] it was 4.47 nM.

As for `C[C@@H]1Cc2cnc(N[C@@H]3CCOC4(CCC4)C3)nc2CN1C(=O)[C@H]1CCN(C)C[C@@H]1c1ccccc1` (relative stereo) [Compound 8], the IC50 in experiment [1] is 69.2 nM; in experiment [2], 2.69 nM.

Consider `C[C@@H]1Cc2cnc(N[C@H]3CCOC4(CCC4)C3)nc2CN1C(=O)[C@H]1CCN(C)C[C@@H]1c1ccccc1` (relative stereo) [Compound 9], for which the IC50 in experiment [1] is 309 nM; in experiment [2] it was 6.17 nM.

Consider `C[C@@H]1Cc2cnc(N[C@@H]3CCOC(C)(C)C3)nc2CN1C(=O)[C@H]1CCN(C)C[C@@H]1c1ccccc1` (relative stereo) [Compound 40], for which the IC50 in experiment [1] is about 52.5 nM; in experiment [2] it was 7.24 nM.

With `Cc1ccc([C@@H]2CN(C)CC[C@H]2C(=O)N2Cc3nc(NC4CCOCC4)ncc3C[C@H]2C)cn1` (relative stereo) [Compound 108], the IC50 in experiment [1] was 1700 nM; in experiment [2], 19.5 nM.

`CO[C@H]1CC[C@H](Nc2ncc3c(n2)CN(C(=O)[C@H]2CCN(C)C[C@@H]2c2ccc(C)nc2)[C@H](C)C3)CC1` (relative stereo) [Compound 110]: the IC50 is 437 nM in experiment [1] and 12.9 nM in experiment [2].

For `Cc1cccc([C@H]2CN(C)CC[C@@H]2C(=O)N2Cc3nc(Nc4cnn(C)c4)ncc3C[C@H]2C)c1` (relative stereo) [Compound 126], the IC50 in experiment [1] was about 3.89 nM; in experiment [2], 3.72 nM.

As to `C[C@@H]1Cc2cnc(NCc3ccn(C)n3)nc2CN1C(=O)[C@@H]1CCN(C)C[C@H]1c1cccc(OC(F)(F)F)c1` (relative stereo) [Compound 127], the IC50 was 1510 nM in experiment [1] and 75.9 nM in experiment [2].

Regarding `C[C@@H]1Cc2cnc(NCc3ccn(C)n3)nc2CN1C(=O)[C@H]1CCN(C)C[C@@H]1c1cccc(OC(F)(F)F)c1` (relative stereo) [Compound 128], the results for the IC50 in experiment [1] and in experiment [2] were 102 nM and 6.76 nM, respectively.

On to `C[C@H]1Cc2cnc(NCc3ccn(C)n3)cc2CN1C(=O)[C@H]1CCN(C)C[C@@H]1c1ccccc1` (relative stereo) [Compound 174], for which the IC50 was 35.5 nM in experiment [1] and 2.63 nM in experiment [2].

Consider `C[C@H]1Cc2cnc(Nc3cnn(C)c3)cc2CN1C(=O)[C@H]1CCN(C)C[C@@H]1c1ccccc1` (relative stereo) [Compound 176], for which the IC50 was 380 nM in experiment [1] and 9.12 nM in experiment [2].

For `Cc1cccc([C@H]2CN(C)CC[C@@H]2C(=O)N2Cc3nc(Nc4cnn(C)c4)ncc3[C@@H]3C[C@@H]32)c1` (relative stereo) [Compound 203], the IC50 in experiment [1] was 148 nM; in experiment [2], 5.37 nM.

Take `C[C@H]1Cc2cnc(NC3CCOCC3)nc2CN1C(=O)N1CCN(C)C[C@H]1c1cccc(F)c1` (relative stereo) [Compound 212]: the IC50 in experiment [1] is 182 nM; in experiment [2], 4.79 nM.

In the case of `C[C@@H]1Cc2cnc(N[C@H](C)c3ccn(C)n3)nc2CN1C(=O)[C@H]1CCN(C)C[C@@H]1c1ccccc1` (single isomer, unassigned) [Compound 54], the IC50 was 123 nM in experiment [1] and 5.13 nM in experiment [2].

As to `C[C@H](Nc1ncc2c(n1)CN(C(=O)[C@H]1CCN(C)C[C@@H]1c1ccccc1)[C@H](C)C2)c1ccn(C)n1` (single isomer, unassigned) [Compound 55], the figures for the IC50 in experiment [1] and in experiment [2] were 4470 nM and 38.9 nM, respectively.

Turning to `C[C@@H]1Cc2cnc(NCc3ccccc3)nc2CN1C(=O)[C@H]1CCN(CC2COC2)C[C@@H]1c1ccccc1` (single isomer, unassigned) [Compound 155], in experiment [1], the IC50 was 537 nM. For the same compound, the “CDK7 (5 nM) pIC50” value in experiment [2] is 8.2.
